# Laboratory results published in EP4703359A1 (Shanghai Simr Biotechnology Co., Ltd., priority 2023, dated 2024).
# Read-outs that look alike come from different tables or passages of the source.
# Assays:
# [1] = biological target: T1, α2-GABAA receptor (Homo sapiens, UniProt P18507+P47869); experiment: Radioactive ligand (3H-flunitrazepam) competitive binding assay, BZD site of membrane proteins of α2-GABAAR-HEK293 cells
# T1 construct: expressed in transfected cells
# Excerpt: (§1) The α subunit, β subunit, and γ subunit are indispensable for forming a fully functional GABAA receptor. In this example, HEK293 cells stably expressing α2-GABAA receptors (α2-GABAAR) were constructed and screened respectively via liposome transfection (Felgner, P.L., et al. Proceedings of the National Academy of Sciences, 1987, 84: 7413-7417). The α2-GABAAR-HEK293 cell model co-expresses the α2 subunit (protein sequence referenced under GenBank accession number: NM_000807.4), β3 subunit (protein sequence referenced under GenBank accession number: NM_000814.5), and γ2 subunit (protein sequence referenced under GenBank accession number: NM_000816.3).
# (§2) The above cell lines were subcultured. α2-GABAAR-HEK293 cells were amplified for testing the affinity of compounds to the benzodiazepine (BZD) site of GABAA receptors. Some of the α2-GABAAR-HEK293 cells in suspension during subculturing were plated on glass slides pre-treated with Poly-D-Lysine for electrophysiological testing (method reference: Patent CN 107344936 A, paragraph 0586).
# The affinity of the compound for the α2-GABAA receptor was determined by competing with ^3H-flunitrazepam (isotope ^3H-labeled flunitrazepam) for binding to the BZD site of membrane proteins in HEK293 cells stably expressing human α2-GABAAR.
# Membrane preparation: Cells were suspended in 50 mM Tris-HCl buffer (pH=7.4), homogenized on ice using a homogenizer for 20 seconds with 10 repetitions, and centrifuged at 4°C, 1000g for 10 minutes. The supernatant was collected, and the above steps were repeated. The supernatant was centrifuged at 4°C (33,800 × g; Thermo, rotor: A27-8x50) for 60 minutes, and the pellet was resuspended in Tris buffer (50 mM Tris-HCl, 10 mM MgCl2, 0.5 mM EDTA, 10% glycerol). The protein concentration was determined using the bicinchoninic acid (BCA) protein assay based on the copper ion reduction method (BCA kit purchased from Pierce (Annoron)). Aliquots of 1 mL were prepared and stored at -80°C.
# Radioactive ligand competitive binding assay: This assay was conducted in a 200 µL system (96-well plate), containing 100 µL of cell membrane. The concentration of ^3H-flunitrazepam was 1 nM, and the concentration of the test compound ranged from […]. Flumazenil was used as a control. The low signal control well (Low Control, LC) was added with 1 µL of 2 mM flumazenil (final concentration 10 µM), while the high signal control well (High Control, HC) was added with 1 µL of dimethyl sulfoxide. The final concentration of the target membrane protein was 5 µg/well. All test compound stock solutions were prepared as 10 mM solutions in dimethyl sulfoxide. The working concentration of the samples was prepared by diluting all samples to 0.2 mM with dimethyl sulfoxide, followed by a 4-fold serial dilution to obtain a total of 8 concentration gradients. The 96-well plate was sealed with sealing film and then incubated on a shaker at room temperature for 1 hour. The GF/C filter plate was also soaked with a soaking buffer (0.3% PEI (polyethyleneimine, purchased from: Sigma-Aldrich, model: P314), stored at 4°C) for at least 0.5 hours. After the incubation was completed, the mixture was collected onto a GF/C filter plate using a cell harvester and washed four times with wash buffer (50 mM Tris-HCl, pH 7.4, stored at 4°C). After drying in a 50°C oven for 1 hour, the dried GF/C filter plate was sealed at the bottom with a film. The residual radioactivity on the filter membrane was detected using liquid scintillation counting. Each well was filled with 50 µL of scintillation fluid and sealed. Readings were taken using a Microbeta^2 (microplate counter, purchased from PerkinElmer, model: CNLL0153). The inhibitory activity of the test sample on the binding of ^3H-flunitrazepam to GABAA receptor membrane protein was calculated. […]
# [2] = biological target: T1, α2-GABAA receptor; experiment: Whole-cell patch-clamp electrophysiology, positive allosteric modulatory activity in α2-GABAAR-HEK293 cells; type: cell-based; conditions: compound 100 nM, GABA 0.10 to 0.11 µM (approximately EC7-8), normalized to reference compound CVL-865 (= 100%); for Emax at 0.1 µM: read-out: α2-GABAAR Positive allosteric modulatory activity
# Excerpt: as §1, §2
# The positive modulatory activity of the test drug on the α2-GABAA receptor was assessed using electrophysiological methods. The specific approach is as follows:
# With regards to the concentration of the compound, the final concentration of all compounds used in the screening was 100 nM. For cell lines expressing α2-GABAA receptors, the GABA concentration was 0.10 to 0.11 µM (approximately EC7-8). Electrophysiological experiments were conducted using the whole-cell patch-clamp technique, which can be referenced to the method reported in the literature (Nickolls, S. A., et al. *British Journal of Pharmacology*, 2018, 175: 708-725). The composition of the extracellular solution (ECS) for electrophysiology was as follows: 150 mM NaCl, 5 mM KCl, 2.5 mM CaCl2, 1 mM MgCl2, 10 mM HEPES, and 10 mM glucose (pH 7.4). The intracellular solution (ICS) for electrophysiology was formulated as follows: 140 mM CsCl, 11 mM EGTA, 10 mM HEPES, 2 mM CaCl2, 1 mM MgCl2, 4 mM MgATP, and 2 mM TEA (pH 7.3). GABA (γ-aminobutyric acid) powder was dissolved in pure water to prepare a stock solution, which was subsequently diluted in ECS. The compound was initially dissolved in dimethyl sulfoxide to prepare a 4 mM stock solution, followed by stepwise dilution into GABA-ECS at corresponding concentrations. All solutions were freshly prepared prior to electrophysiological testing.
# Electrophysiological signals were acquired using an EPC 10 amplifier and PatchMaster software (HEKA) or an Axon 700B amplifier and Clampex software (AXON). The recording electrode was pulled from borosilicate glass, with an electrode resistance of 4 to 6 MΩ. Extracellular administration was performed using the ALA-VC-8PG™ system. A single independently growing cell was selected. After forming a tight seal between the glass electrode and the cell membrane, the membrane was ruptured to establish the whole-cell configuration. The cell membrane potential was clamped at -60 mV and recorded in Gap-free mode. During the test, extracellular fluid was first applied externally for approximately 20 seconds. After the baseline (Iprebaseline) was stabilized, the extracellular solution was switched to GABA-ECS. At this point, the current induced by GABA (Igaba) can be detected. After approximately 10 to 20 seconds, once the current had stabilized, the extracellular solution was switched to a mixture of the compound and GABA-ECS until the current induced by both the compound and GABA (Itreatment) could be detected. Finally, the solution was switched to extracellular fluid, and the recording was terminated after 20 to 40 seconds. Only cells with a stable baseline, an absolute control current magnitude (Igaba - Iprebaseline) greater than 40 pA, and a relatively stable current within 10 to 20 seconds were used for compound testing. […]
# [3] = competition with 1 nM 3H-flunitrazepam; HEK293 membranes expressing α2, β3, γ2 subunits; Ki calculated from IC50; read-out: α2 Ki
Compound,"Ki [1, 3] [nM]",Emax at 0.1 µM [2] [%],"Ki ([1]; read-out: α2 Ki; competition with 1 nM 3H-flunitrazepam; HEK293 membranes expressing α2, β3, γ2 subunits; Ki calculated from IC50) [nM]",α2-GABAAR Positive allosteric modulatory activity [2] [%]
"CCCNC(=O)c1nc2c(-c3cccc(C)c3F)cccn2c1N [Example 64, 3-Amino-8-(2-fluoro-3-methylphenyl)-N-propylimidazo[1,2-a]pyridine-2-carboxamide]",3.37,93,–,–
"COc1cccc(F)c1-c1cccn2c(N)c(C(=O)NC3CC(F)(F)C3)nc12 [Example 9, 3-Amino-N-(3,3-difluorocyclobutyl)-8-(2-fluoro-6-methoxyphenyl)imidazo[1,2-a]pyridine-2-carboxamide]",93,52,–,–
"COc1cccc(F)c1-c1cccn2c(N)c(C(=O)Nc3ccccc3)nc12 [Example 13, 3-Amino-8-(2-fluoro-6-methoxyphenyl)-N-phenylimidazo[1,2-a]pyridine-2-carboxamide]",44,107,–,–
"COc1cccc(F)c1-c1cccn2c(N)c(C(=O)NCC3CC3)nc12 [Example 6, 3-Amino-N-(cyclopropylmethyl)-8-(2-fluoro-6-methoxyphenyl)imidazo[1,2-a]pyridine-2-carboxamide]",24,57,–,–
CCCNC(=O)c1nc2c(-c3cc(F)ccc3OC)cccn2c1N [Example 51],–,–,26,121
"COc1cccc(F)c1-c1cccn2c(N)c(C(=O)NCc3ccccc3)nc12 [Example 19, 3-Amino-N-benzyl-8-(2-fluoro-6-methoxyphenyl)imidazo[1,2-a]pyridine-2-carboxamide]",13.9,65,–,–
"CCCNC(=O)c1nc2c(-c3cccc(C#N)c3F)cccn2c1N [Example 57, 3-Amino-8-(3-cyano-2-fluorophenyl)-N-propylimidazo[1,2-a]pyridine-2-carboxamide]",3.32,167,–,–
"CCCNC(=O)c1nc2c(-c3cccc(C(F)(F)F)c3)cccn2c1N [Example 47, 3-Amino-N-propyl-8-(3-(trifluoromethyl)phenyl)imidazo[1,2-a]pyridine-2-carboxamide]",35.2,–,–,–
"CCCNC(=O)c1nc2c(-c3cccc(CCC#N)c3)cccn2c1N [Example 37, 3-Amino-8-(3-(2-cyanoethyl)phenyl)-N-propylimidazo[1,2-a]pyridine-2-carboxamide]",33.6,105,–,–
"CCCNC(=O)c1nc2c(-c3ccccc3OC)cccn2c1N [Example 61, 3-Amino-8-(2-methoxyphenyl)-N-propylimidazo[1,2-a]pyridine-2-carboxamide]",39.4,91,–,–
"[2H]c1ccc(F)c(-c2cccn3c(N)c(C(=O)NCCC)nc23)c1OC [Example 137, 3-Amino-8-(2-fluoro-6-methoxyphenyl-5-d)-N-propylimidazo[1,2-a]pyridine-2-carboxamide]",13.5,97,–,–
"CCCNC(=O)c1nc2c(-c3c(F)cccc3OC)c(C#N)ccn2c1N [Example 148, 3-Amino-7-cyano-8-(2-fluoro-6-methoxyphenyl)-N-propylimidazo[1,2-a]pyridine-2-carboxamide]",4.46,107,–,–
"CCCNC(=O)c1nc2c(-c3cc(-c4cnnc5c4ncn5CC)ccc3OC)cccn2c1N [Example 71, 3-Amino-8-(5-(7-ethyl-7H-imidazo[4,5-c]pyridazin-4-yl)-2-methoxyphenyl)-N-propylimidazo[1,2-a]pyridine-2-carboxamide]",7.43,130,–,–
"CCCNC(=O)c1nc2c(-c3cccc(Cl)c3F)cccn2c1N [Example 66, 3-Amino-8-(3-chloro-2-fluorophenyl)-N-propylimidazo[1,2-a]pyridine-2-carboxamide]",2.44,–,–,–
"CCCNC(=O)c1nc2c(-c3c(F)cccc3OC)cccn2c1N [Example 3, 3-Amino-8-(2-fluoro-6-methoxyphenyl)-N-propylimidazo[1,2-a]pyridine-2-carboxamide]",24,105,–,–
"CCCNC(=O)c1nc2c(-c3c(OC)ccc4ccoc34)cccn2c1N [Example 103, 3-Amino-8-(6-methoxybenzofuran-7-yl)-N-propylimidazo[1,2-a]pyridine-2-carboxamide]",–,87,–,–
"CCCNC(=O)c1nc2c(-c3cnc(OC)nc3OC)c(F)ccn2c1N [Example 120, 3-Amino-8-(2,4-dimethoxypyrimidin-5-yl)-7-fluoro-N-propylimidazo[1,2-a]pyridine-2-carboxamide]",–,59,–,–
"CCCNC(=O)c1nc2c(-c3c(F)ccc4ccoc34)cccn2c1N [Example 101, 3-Amino-8-(6-fluorobenzofuran-7-yl)-N-propylimidazo[1,2-a]pyridine-2-carboxamide]",–,112,–,–
"COc1cccc(F)c1-c1cccn2c(N)c(C(=O)NC34CC(C3)C4)nc12 [Example 11, 3-Amino-N-(bicyclo[1.1.1]pent-1-yl)-8-(2-fluoro-6-methoxyphenyl)imidazo[1,2-a]pyridine-2-carboxamide]",–,27,–,–
"COc1cccc(F)c1-c1cccn2c(N)c(C(=O)NCCCO)nc12 [Example 23, 3-Amino-8-(2-fluoro-6-methoxyphenyl)-N-(3-hydroxypropyl)imidazo[1,2-a]pyridine-2-carboxamide]",–,57,–,–
"CCCNC(=O)c1nc2c(-c3cccc(/C(C)=N/OC)c3)cccn2c1N [Example 38, (E)-3-Amino-8-(3-(1-(methoxyimino)ethyl)phenyl)-N-propylimidazo[1,2-a]pyridine-2-carboxamide]",–,50,–,–
